Assay results published in patent US20030212100A1, “Quinoline derivatives and medicinal use thereof” (priority 2000, published 2003).

Experiments:
[1] = tested on: KK-Ay/Ta Jci type 2 diabetes mice; assay: In-vivo blood sugar and lipid reduction in diabetes model mice (KKAy mice); set-up: species or system mouse; conditions: 30 mg/kg orally one time per day for 4 days, 5th day vs 1st day; for Reduction in free fatty acid (%) / Reduction in triglyceride (%): plasma
Description: Test for in-vivo Evaluation of the Activities for Blood Sugar Reduction and Lipid Reduction Using Diabetes Model Mice (KKAy Mice)
Type 2 diabetes mice “KK-Ay/Ta Jci” (male, Clea Japan, Inc., 10-week old) put in cages were used (each cage contained 5 mice). In the morning of the 1st day of test start, a blood was collected from the orbital vein of each mouse. The blood sugar value in the blood was measured by subjecting the blood to deproteinization using perchloric acid, subjecting the resulting material to centrifugation, and subjecting the resulting supernatant liquid to a new blood sugar test (Boehringer Mannheim). Further, the blood was subjected to centrifugation to obtain a plasma and the triglyceride concentration and free fatty acid concentration in the plasma were measured using Triglyceride E-Test Wako and NEFA-C Test Wako (Wako Pure Chemical Industries, Ltd.), respectively. Grouping was made so that the blood sugar values in individual groups became the same. Then, an Example 2 compound (exemplary compound No. 61) was suspended in a 0.5% aqueous CMC solution and administered orally one time per day for 4 days. In the 5th day of test, blood collection was made to measure blood sugar value, triglyceride concentration and free fatty acid concentration. Incidentally, a group to which only the 0.5% aqueous CMC solution was administered, was used as a control group; and Pioglitazone was used in a positive control group. The reduction in parameter in each group was calculated using the following formula.
Reduction (%)={1−(parameter of 5th day in each group)/(parameter of 1st day in each group)}×100

human PPARα receptor = biological target: T1, human PPARα receptor (Homo sapiens, UniProt Q07869); assay: Luciferase reporter assay of PPARα agonist activity (Gal4-PPARα chimera receptor in CV-1 cells); type: cell-based; conditions: for Emax at 0.1 µM: CV-1, 0.1 μM compound; for Emax at 0.1 µM / Emax at 1 µM / Emax at 10 µM: luciferase activity with 10 μM Wy-14,643 taken as 100, read-out: PPARα agonist activity, relative activity; for Emax at 1 µM: CV-1, 1 μM compound; for Emax at 10 µM: CV-1, 10 μM compound; for PPARα agonist activity, relative activity: luciferase activity with 10 μM Wy-14,643 taken as 100
T1 construct: expressed in transfected cells; host or cells: CV-1 cells (pSG5-based expression vector)
T1 sequence (Q07869 167-468): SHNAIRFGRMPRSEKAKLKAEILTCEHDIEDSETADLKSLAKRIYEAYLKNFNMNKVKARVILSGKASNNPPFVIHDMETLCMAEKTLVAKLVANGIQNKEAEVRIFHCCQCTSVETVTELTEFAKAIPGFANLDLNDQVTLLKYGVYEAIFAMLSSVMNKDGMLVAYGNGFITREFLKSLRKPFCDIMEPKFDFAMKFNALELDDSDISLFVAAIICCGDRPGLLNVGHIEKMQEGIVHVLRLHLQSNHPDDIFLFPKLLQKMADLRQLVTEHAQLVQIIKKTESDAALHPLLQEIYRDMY
Description: (§1) Measurement of PPARα Agonist Activity and PPARγ Agonist Activity
(§2) 1. Materials for Assay of Luciferase Using Human PPARα and PPARγ Receptors
(§3) The entire procedure was carried out according to the fundamental methods of genetic engineering and the ordinary method in the yeast one-hybrid or two-hybrid system was applied.
(§4) PGL2-UAS5-TK-luc was prepared as a reporter plasmid carrying a response sequence of Gal4 protein as a basic transcription factor of yeast, an enhancer sequence with five repeat part of UAS, a luciferase gene (luc) under the control of timidine kinase (TK) promoter. Specifically, a DNA fragment encoding a TK promoter (−105/+51) on the downstream side of an enhancer sequence comprising two time repeat of UAS was amplified by PCR using pRL-TK carrying a TK promoter (Promega, Trade name: Catalogue No. E2241) as the template and the primers: […]
(§5) After the fragment was cleaved with XhoI-Hind III, pGL2-UAS2-TK-luc was obtained by inserting the resultant fragment into the XhoI-Hind III site located on the upstream side of a luciferase structural gene on pGL2-Basic vector (Promega, Trade name: Catalogue No. E1641).
(§6) After cleavage of a synthetic DNA as an enhancer sequence comprising three time repeat of Gal4 response sequence (SEQ ID NO: 3): 5′-ATTGGTAC([…])×3 AGATCTCGAC) using KpnI and BgIII was carried out, pGL2-UAS5-TK-luc was prepared by inserting the resulting fragment into the KpnI-BgIIIb site of pGL2-UAS2-TK-luc.
(§7) A vector for expression of a chimera receptor protein, in which a ligand binding region of an internuclear receptor human PPARα or PPARγ receptor was fused with the carboxyl terminal of a DNA binding region of yeast Ga14 protein, was prepared as follows:
(§8) The structural gene of pSG5 (STRATAGENE, Trade Name: Catalogue No. 216201) as the basic expression vector was changed for the chimera receptor except that the promoter-enhancer region was maintained as it was.
(§9) The DNA encoding the ligand binding region of the human PPARα or PPARγ receptor was fused on the downstream side of the DNA encoding the DNA binding region and the amino acid sequence from 1 to 147 positions of Ga14 protein so that their reading frames were fitted and the resulting fused DNA was inserted into pSG5 (trade name) on the down stream side of the promoter-enhancer region. In this step, the DNA sequence was arranged so that a signal for transfer into the nucleus (Ala Pro Lys Lys Lys Arg Lys Val Gly (SEQ ID: No: 4) derived from SV-40T antigen was located on the amino terminal of the ligand binding region of PPARα or PPARγ receptor in order to localize the chimera receptor in the nucleus.
(§10) Based on comparison of the human PPAR receptors described in R. Mukherjee et al., [see J. Steroid Biochem. Molec. Biol., Vol. 51, p157 (1994)] and M. E. Green et al., [see Gene Expression, Vol. 4, p281 (1995))], as the structural gene part used for the ligand binding region PPARα or PPARγ, the human PPARα ligand binding region: Ser167-Tyr468; and the PPARγ ligand binding region: Ser176-Tyr478 were used, which had the same sequences corresponding to Ser204-Tyr506 for human PPARγ1 receptor and human PPARγ2, respectively.
(§11) In order to monitor influence against the basic transcription, an expression vector was prepared which carried a DNA encoding only the DNA binding region and the amino acid sequence from 1 to 147 position of Ga14 protein defective in its PPAR ligand binding region and a signal for transfer into the nucleus of SV-40T-antigen.
(§12) 2. Assay of Luciferase Using Human PPARα or PPARγ Receptor
(§13) CV-1 cells used as a host cell were cultivated according to an ordinary method. Specifically, a fetal bovine serum (Intergent, Catalogue No. 1020-90) was added to a Dulbecco's modified Eagle's medium (DMEM) so that the final concentration became 10%. Further, penicillin G (50 U/ml) and streptomycin sulfate (50 μg/ml) were added. Cultivation was conducted in the resulting medium in a 5% carbon dioxide gas at 37° C. […]

human PPARγ receptor = biological target: T2, human PPARγ receptor (Homo sapiens, UniProt P37231); assay: Luciferase reporter assay of PPARγ agonist activity (Gal4-PPARγ chimera receptor in CV-1 cells); type: cell-based; conditions: for Emax at 0.1 µM: CV-1, 0.1 μM compound; for Emax at 0.1 µM / Emax at 1 µM / Emax at 10 µM: luciferase activity with 1 μM Pioglitazone taken as 100, read-out: PPAR γ agonist activity, relative activity; for Emax at 1 µM: CV-1, 1 μM compound; for Emax at 10 µM: CV-1, 10 μM compound; for PPAR γ agonist activity, relative activity: luciferase activity with 1 μM Pioglitazone taken as 100
T2 construct: corresponding to Ser204-Tyr506 for human PPARγ1 receptor and human PPARγ2; expressed in transfected cells; host or cells: CV-1 cells (pSG5-based expression vector)
T2 sequence (P37231 204-505 limits assumed): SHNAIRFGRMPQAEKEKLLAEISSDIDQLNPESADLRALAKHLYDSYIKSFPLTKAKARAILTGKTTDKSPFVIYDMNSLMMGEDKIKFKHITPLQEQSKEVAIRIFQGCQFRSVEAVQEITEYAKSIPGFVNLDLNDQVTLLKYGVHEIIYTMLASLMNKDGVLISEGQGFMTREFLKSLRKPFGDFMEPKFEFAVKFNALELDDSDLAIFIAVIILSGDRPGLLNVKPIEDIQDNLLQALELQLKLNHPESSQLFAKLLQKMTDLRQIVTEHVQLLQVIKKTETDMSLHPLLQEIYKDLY
Description: as §1, §2, §3, §4, §5, §6, §7, §8, §9, §10, §11, §12, §13

SMILES | Reduction in blood sugar (%) [1] [%] | Reduction in free fatty acid (%) [1] [%] | Reduction in triglyceride (%) [1] [%] | Emax at 0.1 µM (human PPARα receptor) [%] | Emax at 1 µM (human PPARα receptor) [%] | Emax at 10 µM (human PPARα receptor) [%] | Emax at 0.1 µM (human PPARγ receptor) [%] | Emax at 1 µM (human PPARγ receptor) [%] | Emax at 10 µM (human PPARγ receptor) [%] | PPARα agonist activity, relative activity (human PPARα receptor; 0.1 μM compound) | PPARα agonist activity, relative activity (human PPARα receptor; 1 μM compound) | PPARα agonist activity, relative activity (human PPARα receptor; 10 μM compound) | PPAR γ agonist activity, relative activity (human PPARγ receptor; 0.1 μM compound) | PPAR γ agonist activity, relative activity (human PPARγ receptor; 1 μM compound) | PPAR γ agonist activity, relative activity (human PPARγ receptor; 10 μM compound)
CCc1ccc(CCOc2ccc(CC3SC(=O)NC3=O)cc2)nc1 (stereo not shown) [Pioglitazone, reference compound] | 28 | 49 | 60 | – | – | – | – | – | – | – | – | – | – | – | –
COc1ccc2ncc(COc3ccc(CC(Sc4ccccc4)C(=O)O)cc3)c(OC(C)C)c2c1 (stereo not shown) [Example 19 (108), 3-{[4-(4-isopropoxy-6-methoxyquinoline-3-yl)methyloxy]phenyl}-2-phenylthiopropanoic acid] | – | – | – | 0.3 | 0.3 | 0.6 | 25.2 | 83.5 | 97.9 | – | – | – | – | – | –
CCOC(Cc1ccc(OCc2cnc3cc(OC)c(OC)cc3c2OC(C)C)cc1)C(=O)O (stereo not shown) [Example 8 (65), 2-ethoxy-3-{[4-(4-isopropoxy-6,7-dimethoxyquinoline-3-yl)methyloxy]phenyl}propanoic acid] | – | – | – | 0.3 | 0.3 | 1.5 | 1.3 | 13 | 107 | – | – | – | – | – | –
CCOC(Cc1ccc(OCc2cnc3ccc(OC)cc3c2OC(C)C)cc1)C(=O)O (stereo not shown) [Example 2 (61), 2-ethoxy-3-{[4-(4-isopropoxy-6-methoxyquinoline-3-yl)methyloxy]phenyl}propanoic acid] | 50 | 46 | 57 | – | 10.4 | 24.6 | 85 | 114 | – | – | – | – | – | – | –
CCOC(Cc1ccc(OCc2cnc3c(C(F)(F)F)cccc3c2OC(C)C)cc1)C(=O)O (stereo not shown) [Example 14 (86), 2-ethoxy-3-{[4-(4-isopropoxy-8-trifluoromethylquinoline-3-yl)methyloxy]phenyl}propanoic acid] | – | – | – | 0.3 | 0.3 | 2.1 | 19.6 | 76 | 132 | – | – | – | – | – | –
CCOC(Cc1ccc(OCc2cnc3cc(C(F)(F)F)ccc3c2OC(C)C)cc1)C(=O)O (stereo not shown) [Example 12 (85), 2-ethoxy-3-{[4-(4-isopropoxy-7-trifluoromethylquinoline-3-yl)methyloxy]phenyl}propanoic acid] | – | – | – | 0.2 | 0.3 | 6.4 | 1.2 | 60.4 | 111 | – | – | – | – | – | –
CCOC(Cc1ccc(OCc2cnc3ccc(CC)cc3c2OC(C)C)cc1)C(=O)O (stereo not shown) [Example 6 (67), 2-ethoxy-3-{[4-(4-isopropoxy-6-ethylquinoline-3-yl)methyloxy]phenyl}propanoic acid] | – | – | – | 5.7 | 47.1 | 74 | 122 | 140 | 125 | – | – | – | – | – | –
CCOC(Cc1ccc(OCc2ccc3ncccc3c2)cc1)C(=O)O (stereo not shown) [Example 10 (32), 2-ethoxy-3-{[4-(quinoline-6-yl)methyloxy]phenyl}propanoic acid] | – | – | – | – | – | – | – | – | – | 0.2 | 0.3 | 50.1 | 1.0 | 20.8 | 123.9
